Assay results taken from the supplement of paper PMC10307832.

How the values were obtained:
Test in all cases: relative viability (nuclei count vs DMSO), 5 days (fraction); higher = more cells survive
Etoposide + Olaparib = compound: COc1cc([C@@H]2c3cc4c(cc3[C@@H](O[C@@H]3O[C@@H]5CO[C@@H](C)O[C@H]5[C@H](O)[C@H]3O)[C@H]3COC(=O)[C@H]23)OCO4)cc(OC)c1O [Etoposide] + O=C(c1cc(Cc2n[nH]c(=O)c3ccccc23)ccc1F)N1CCN(C(=O)C2CC2)CC1 [Olaparib] (partner 8 µM)
How it was run: (§1)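 Relative viability equals treated-well nuclei counts divided by vehicle-well nuclei counts. Counts came from 4× images of lung cancer cell lines grown in 1536-well plates for 5 days after pin-tool dosing on the day after seeding. Dosing used one drug alone or a fixed anchor-drug dose plus five library-drug doses (not always all listed) in √10 steps, and values are medians of duplicate plates.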

Bleomycin + Palbociclib = compound: CC1=C(N=C(N=C1N)[C@H](CC(=O)N)NC[C@@H](C(=O)N)N)C(=O)N[C@@H]([C@H](C2=CN=CN2)OC3C(C(C(C(O3)CO)O)O)OC4C(C(C(C(O4)CO)O)OC(=O)N)O)C(=O)N[C@H](C)[C@H]([C@H](C)C(=O)N[C@@H]([C@@H](C)O)C(=O)NCCC5=NC(=CS5)C6=NC(=CS6)C(=O)NCCC[S+](C)C)O [Bleomycin] + CC(=O)c1c(C)c2cnc(Nc3ccc(N4CCNCC4)cn3)nc2n(C2CCCC2)c1=O [Palbociclib] (partner 0.5 µM); details: main component drawn
How it was run: as §1

Etoposide + Palbociclib = compound: COc1cc([C@@H]2c3cc4c(cc3[C@@H](O[C@@H]3O[C@@H]5CO[C@@H](C)O[C@H]5[C@H](O)[C@H]3O)[C@H]3COC(=O)[C@H]23)OCO4)cc(OC)c1O [Etoposide] + CC(=O)c1c(C)c2cnc(Nc3ccc(N4CCNCC4)cn3)nc2n(C2CCCC2)c1=O [Palbociclib] (partner 0.5 µM)
How it was run: as §1

Etoposide + Pictilisib = compound: COc1cc([C@@H]2c3cc4c(cc3[C@@H](O[C@@H]3O[C@@H]5CO[C@@H](C)O[C@H]5[C@H](O)[C@H]3O)[C@H]3COC(=O)[C@H]23)OCO4)cc(OC)c1O [Etoposide] + CS(=O)(=O)N1CCN(Cc2cc3nc(-c4cccc5[nH]ncc45)nc(N4CCOCC4)c3s2)CC1 [Pictilisib] (partner 1 µM)
How it was run: as §1

Row | Cell Line | relative viability (Etoposide + Olaparib; first compound 0.01 µM) | relative viability (Etoposide + Olaparib; first compound 0.03162 µM) | relative viability (Etoposide + Olaparib; first compound 0.1 µM) | relative viability (Etoposide + Olaparib; first compound 0.3162 µM) | relative viability (Etoposide + Olaparib; first compound 1 µM) | relative viability (Bleomycin + Palbociclib; first compound 0.01 µM) | relative viability (Bleomycin + Palbociclib; first compound 0.03162 µM) | relative viability (Bleomycin + Palbociclib; first compound 0.1 µM) | relative viability (Bleomycin + Palbociclib; first compound 0.3162 µM) | relative viability (Bleomycin + Palbociclib; first compound 1 µM) | relative viability (Etoposide + Palbociclib; first compound 0.01 µM) | relative viability (Etoposide + Palbociclib; first compound 0.03162 µM) | relative viability (Etoposide + Palbociclib; first compound 0.1 µM) | relative viability (Etoposide + Palbociclib; first compound 0.3162 µM) | relative viability (Etoposide + Palbociclib; first compound 1 µM) | relative viability (Etoposide + Pictilisib; first compound 0.03162 µM) | relative viability (Etoposide + Pictilisib; first compound 0.1 µM) | relative viability (Etoposide + Pictilisib; first compound 0.3162 µM) | relative viability (Etoposide + Pictilisib; first compound 1 µM) | relative viability (Etoposide + Pictilisib; first compound 0.01 µM)
1 | LCLC-97TM1 | 0.423 | 0.458 | 0.229 | 0.113 | 0.0808 | 0.154 | 0.211 | 0.157 | 0.112 | 0.101 | 0.243 | 0.248 | 0.169 | 0.165 | 0.121 | 0.172 | 0.115 | 0.116 | 0.109 | –
2 | LCLC-103H | 0.786 | 0.803 | 0.77 | 0.665 | 0.383 | 0.501 | 0.525 | 0.547 | 0.373 | 0.43 | 0.526 | 0.553 | 0.509 | 0.457 | 0.407 | 0.74 | 0.527 | 0.679 | 0.519 | 0.541
3 | LK-2 | 0.618 | 0.81 | 0.511 | 0.287 | 0.205 | 0.45 | 0.299 | 0.418 | 0.15 | 0.134 | 0.618 | 0.588 | 0.451 | 0.412 | 0.275 | 0.572 | 0.407 | 0.476 | 0.26 | 0.573
4 | LOU-NH91 | 0.893 | 0.905 | 0.824 | 0.651 | 0.383 | 0.476 | 0.449 | 0.428 | 0.35 | 0.364 | 0.556 | 0.545 | 0.516 | 0.468 | 0.428 | 0.566 | 0.474 | 0.473 | 0.399 | 0.55
5 | LU99A | 0.277 | 0.28 | 0.205 | 0.139 | 0.118 | 0.329 | 0.405 | 0.286 | 0.167 | 0.126 | 0.392 | 0.427 | 0.266 | 0.226 | 0.166 | 0.337 | 0.237 | 0.212 | 0.159 | 0.362
6 | LXF-289 | 1.1 | 1.07 | 0.954 | 0.234 | 0.1 | 0.58 | 0.571 | 0.606 | 0.324 | 0.221 | 0.618 | 0.606 | 0.621 | 0.487 | 0.331 | 0.849 | 0.655 | 0.556 | 0.152 | 0.807
7 | NCI-H23 | 0.263 | 0.283 | 0.295 | 0.174 | 0.166 | 0.311 | 0.251 | 0.25 | 0.15 | 0.152 | 0.504 | 0.515 | 0.485 | 0.334 | 0.236 | 0.487 | 0.275 | 0.334 | 0.185 | 0.433
8 | NCI-H322M | 0.781 | 0.764 | 0.725 | 0.548 | 0.508 | 0.472 | 0.562 | 0.484 | 0.428 | 0.491 | 0.526 | 0.481 | 0.436 | 0.467 | 0.445 | 0.566 | 0.397 | 0.493 | 0.384 | 0.504
9 | NCI-H358 | 0.692 | 0.519 | 0.521 | 0.104 | 0.0937 | 0.142 | 0.178 | 0.115 | 0.133 | 0.111 | 0.132 | 0.148 | 0.131 | 0.104 | 0.0757 | 0.336 | 0.259 | 0.23 | 0.16 | 0.382
10 | NCI-H441 | 0.516 | 0.463 | 0.393 | 0.164 | 0.155 | 0.182 | 0.203 | 0.185 | 0.153 | 0.17 | 0.194 | 0.251 | 0.177 | 0.191 | 0.128 | 0.425 | 0.267 | 0.149 | 0.147 | 0.38
11 | NCI-H460 | 0.395 | 0.314 | 0.247 | 0.0642 | 0.047 | 0.0989 | 0.126 | 0.0546 | 0.0357 | 0.0284 | 0.131 | 0.11 | 0.111 | 0.0408 | 0.0313 | 0.434 | 0.151 | 0.076 | 0.0793 | 0.393
12 | NCI-H520 | 0.296 | 0.328 | 0.437 | 0.293 | 0.225 | 0.215 | 0.218 | 0.215 | 0.203 | 0.206 | 0.256 | 0.245 | 0.193 | 0.254 | 0.227 | 0.307 | 0.27 | 0.277 | 0.223 | 0.306
13 | NCI-H647 | 0.459 | 0.516 | 0.33 | 0.0871 | 0.0592 | 0.189 | 0.207 | 0.138 | 0.119 | 0.0651 | 0.423 | 0.458 | 0.321 | 0.258 | 0.216 | 0.394 | 0.257 | 0.208 | 0.0798 | 0.418
14 | NCI-H650 | 0.393 | 0.317 | 0.314 | 0.184 | 0.152 | 0.282 | 0.34 | 0.307 | 0.255 | 0.2 | 0.29 | 0.299 | 0.26 | 0.237 | 0.161 | 0.843 | 0.415 | 0.362 | 0.221 | 0.865
15 | NCI-H661 | 0.776 | 0.819 | 0.686 | 0.463 | 0.471 | 0.39 | 0.398 | 0.354 | 0.335 | 0.312 | 0.415 | 0.468 | 0.332 | 0.384 | 0.352 | 0.453 | 0.309 | 0.32 | 0.26 | 0.543
